# Where “and” joins values, the source holds several entries; their conditions need not be identical. Equal entries are not always repeated.
# Experiments:
# [1] = system: PANC1 tumor-bearing BALB/c nude mice; experiment: In vivo anticancer efficacy study of NMP-BE@SAC5A; set-up: species or system mouse; details: for Tumor volume: SAC5A 15, NMP-BE 5, NMP-BE@SAC5A 20 mg/kg iv
# Text: After the tumor grows to a suitable size, the tumor was divided into small pieces and then subcutaneously inoculated into the right flank of other mice. After 10 d of inoculation, when the tumor volumes of mice were around 50 mm^3, PANC1-bearing BALB/c nude mice were separated randomly with a total of six mice in each group. […] On day 18 after injection, the mice were euthanized, and their tumors were collected. […] In addition, we also investigated the anticancer effects of NMP-BE@SBE-β-CD.
# (§1) Tumors were measured as mentioned above.
# [2] = system: PANC1 tumor-bearing BALB/c nude mice; experiment: In vivo anticancer effects of NMP and SAC5A; set-up: species or system mouse; details: for Tumor volume: Supplementary Fig.22a
# Description: Supplementary Figure 22. […] (a) Average […]
# presented as mean ± SD (n = 6 mice per group). P values are calculated by two-way […]
# Data are presented as mean ± SD ( n = 6 biologically independent samples ). P values are calculated by one-way ANOVA with Turkey’s multiple comparisons test: ns: no […]
# Note: (b) During the experiment, the tumor images were taken of PBS vs NMP, PBS vs SAC5A groups respectively. As the PBS group consisted of the same tumors, the tumor
# [3] = Biosafety: blood routine and blood chemistry assays
# Description: Toxic effects are a barrier to overcome before efficient deliverability can be achieved with BE.
# For in vivo anticancer efficacy study, 1 × 10^6 PANC1 cells were injected subcutaneously into the right flanks of the BALB/c nude mice. To investigate the anticancer effects of SBE-β-CD@NMP-BE, the mice with tumor volumes at around 50 mm^3 were randomized into four groups (6 mice per group) and injected intravenously via tails with 200 μL of PBS, NMP-BE (5 mg/kg), SBE-β-CD (15 mg/kg) and NMP-BE@SBE-β-CD (20 mg/kg) every two days for 8 times and the tumor volumes for 14 days were continuously monitored. Tumor were measured by using a Vernier calipers and the volume (V) was calculated to be V = d^2 × D/2, where d is the shortest and the D is longest diameter of the tumor in mm respectively. […] Tumors were measured as mentioned above. To assess potential toxicities, mice were monitored for weight loss. Tumors were collected for H&E analysis and immunofluorescence staining. Major organs including heart, liver, spleen, lung, and kidney, were collected and stained with H&E for histopathologic analysis. To evaluate biosafety of SAC5A, blood samples were collected for blood chemistry assay and blood routine assay.
# [4] = Competitive fluorescence titration of RhB@SAC5A with NMP-BE; details: binding of SAC5A to NMP-BE, 1:1 competitive binding, PBS 10 mM pH 7.4, 25 °C
# Description: Data are presented as mean ± SD (n = 3 biologically independent samples). Source data are provided as a Source Data file.
# The complexation of SAC5A with NMP-BE was measured by competitive fluorescence titrations. A mixed solution containing known amounts of reporter dye (RhB), host (SAC5A) and competitive guest (NMP-BE) was injected into 2.50 mL RhB and SAC5A solution in a quartz cuvette. Care was taken to keep the concentrations of dye and SAC5A constant in the course of titrations. The fluorescence intensity was measured (λex = 554 nm for RhB) before the first addition and after every addition. The association constant was obtained by fitting fluorescence intensity (λem = 575 nm for RhB) according to a 1:1 competitive binding model. The fitting of data from direct titrations and competitive titrations was performed in a nonlinear manner, and the fitting modules were downloaded from the website of Prof. Nau’s group (http://www.jacobs-university.de/ses/wnau) under the column of “Fitting Functions”.
# PANC1 tumor tissues = experiment: Histology of dissected tumors (H&E, TUNEL, Ki67); details: mouse, in vivo
# Description: The hematoxylin-eosin (H&E) staining and terminal deoxynucleotidyl transferase dUTP nick end labeling (TUNEL) tests were next carried out to evaluate the cell pathology changes and apoptosis in the tumors of every groups. […] Meanwhile, we verified the effects of different treatments on cancer cell proliferation by immunofluorescence Ki67 staining.
# as §1
# PANC1 cells = experiment: CCK8 cytotoxicity of SAC5A and SBE-β-CD, 24 h; type: cell-based, human; details: for cell viability: 24 h, in % (unit assumed)
# Description: PANC1 cells (5 × 10^3 cells/well) were seeded into the 96-well plate and incubated overnight. They were treated with SAC5A or SBE-β-CD of different concentrations and incubated for 24 h under normoxic or hypoxic conditions, respectively. […] After a 6 h incubation under normoxic conditions, the culture medium was exchanged with fresh medium. Subsequently, the cells were incubated at 37 °C for 18 h under either normoxic or hypoxic conditions, respectively. And then, the culture medium was replaced with fresh medium and 10 μL cell counting kit-8 solution (C6005, US Everbright, Jiangsu, China). Following a 4 h incubation, the optical density was assessed at 450 nm employing a microplate reader.
# Supplementary Figure 19. The cytotoxicity of SAC5A and SBE-β-CD. (a) Cell viability
# Data are presented as mean ± SD (n = 6 biologically independent samples).
structure (smiles),measurement,setting,value
"O=S(=O)(O)c1ccc(/N=N/c2cc3c(O)c(c2)Cc2cc(/N=N/c4ccc(S(=O)(=O)O)cc4)cc(c2O)Cc2cc(/N=N/c4ccc(S(=O)(=O)O)cc4)cc(c2O)Cc2cc(/N=N/c4ccc(S(=O)(=O)O)cc4)cc(c2O)Cc2cc(/N=N/c4ccc(S(=O)(=O)O)cc4)cc(c2O)C3)cc1 [SAC5A, sulfonated azocalix[5]arene]",Mice weight,"[1]; Day 0, single mouse",18.5 g and 17.7 g and 16.0 g and 18.0 g and 17.5 g and 16.6 g
same,Tumor volume,"[1]; Day 0, single mouse",39.34 mm3 and 42.10 mm3 and 36.90 mm3 and 42.16 mm3 and 42.33 mm3 and 56.35 mm3
same,Mice weight,"[1]; Day 2, single mouse",14.6 g and 16.5 g and 17.5 g and 17.9 g and 18.5 g and 17.6 g
same,Tumor volume,"[1]; Day 2, single mouse",46.70 mm3 and 75.90 mm3 and 48.08 mm3 and 55.90 mm3 and 59.70 mm3 and 76.08 mm3
same,Tumor volume,"[1]; Day 4, single mouse",55.83 mm3 and 118.84 mm3 and 75.42 mm3 and 64.80 mm3 and 72.81 mm3 and 104.25 mm3
same,Mice weight,"[1]; Day 6, single mouse",16.3 g and 16.8 g and 17.8 g and 19.4 g and 19.1 g
same,Tumor volume,"[1]; Day 6, single mouse",73.60 mm3 and 175.66 mm3 and 110.64 mm3 and 99.97 mm3 and 116.56 mm3 and 152.05 mm3
same,Mice weight,"[1]; Day 8, single mouse",16.1 g and 19.1 g and 16.0 g and 17.6 g and 17.1 g and 18.7 g
same,Tumor volume,"[1]; Day 8, single mouse",97.53 mm3 and 181.96 mm3 and 126.04 mm3 and 134.13 mm3 and 98.89 mm3 and 192.89 mm3
same,Mice weight,"[1]; Day 10, single mouse",15.8 g and 18.5 g and 15.6 g and 17.5 g and 16.4 g and 18.7 g
same,Tumor volume,"[1]; Day 10, single mouse",142.07 mm3 and 265.92 mm3 and 173.37 mm3 and 226.57 mm3 and 159.78 mm3 and 251.75 mm3
same,Mice weight,"[1]; Day 12, single mouse",16.5 g and 19.0 g and 16.2 g and 18.3 g and 16.3 g and 18.5 g
same,Tumor volume,"[1]; Day 12, single mouse",165.62 mm3 and 298.12 mm3 and 264.30 mm3 and 338.22 mm3 and 196.07 mm3 and 282.53 mm3
same,Mice weight,"[1]; Day 14, single mouse",16.0 g and 18.0 g and 16.1 g and 18.7 g and 16.4 g and 16.2 g
same,Tumor volume,"[1]; Day 14, single mouse",268.77 mm3 and 498.25 mm3 and 328.38 mm3 and 404.85 mm3 and 346.37 mm3 and 404.41 mm3
same,Mice weight,"[1]; Day 16, single mouse",16.6 g and 18.4 g and 19.3 g and 16.3 g and 19.7 g
same,Tumor volume,"[1]; Day 16, single mouse",387.44 mm3 and 789.47 mm3 and 472.22 mm3 and 693.97 mm3 and 504.38 mm3 and 616.16 mm3
same,Mice weight,"[1]; Day 18, single mouse",16.3 g and 17.8 g and 17.5 g and 16.2 g and 19.7 g
same,Tumor volume,"[1]; Day 18, single mouse",532.86 mm3 and 970.26 mm3 and 525.48 mm3 and 748.96 mm3 and 671.75 mm3 and 704.93 mm3
same,anticancer effect,"[1]; PANC1-bearing BALB/c nude mice, iv every other day, 18 days",no anticancer effect
same,Tumor weight,"[1]; day mice were sacrificed (day 18), single mouse",287.7 mg and 279.3 mg and 561.1 mg and 306.5 mg and 287.3 mg and 306.9 mg
same,Tumor volume,"[2]; day 0, individual mice (n=6)",39.34 mm3 and 42.10 mm3 and 36.90 mm3 and 42.16 mm3
same,Tumor volume,"[2]; day 2, individual mice (n=6)",46.70 mm3 and 75.90 mm3 and 48.08 mm3 and 55.90 mm3
same,Tumor volume,"[2]; day 4, individual mice (n=6)",55.83 mm3 and 118.84 mm3 and 75.42 mm3 and 64.80 mm3
same,Tumor volume,"[2]; day 6, individual mice (n=6)",73.60 mm3 and 175.66 mm3 and 110.64 mm3 and 99.97 mm3
same,Tumor volume,"[2]; day 8, individual mice (n=6)",97.53 mm3 and 181.96 mm3 and 126.04 mm3 and 134.13 mm3
same,Tumor volume,"[2]; day 10, individual mice (n=6)",142.07 mm3 and 265.92 mm3 and 173.37 mm3 and 226.57 mm3
same,Tumor volume,"[2]; day 12, individual mice (n=6)",165.62 mm3 and 298.12 mm3 and 264.30 mm3 and 338.22 mm3
same,Tumor volume,"[2]; day 14, individual mice (n=6)",268.77 mm3 and 498.25 mm3 and 328.38 mm3 and 404.85 mm3
same,Tumor volume,"[2]; day 16, individual mice (n=6)",387.44 mm3 and 789.47 mm3 and 472.22 mm3 and 693.97 mm3
same,Tumor volume,"[2]; day 18, individual mice (n=6)",532.86 mm3 and 970.26 mm3 and 525.48 mm3 and 748.96 mm3
same,Tumor weight,"[2]; individual mice (n=6), Supplementary Fig.22c",306.9 mg and 287.7 mg and 279.3 mg and 561.1 mg and 306.5 mg and 287.3 mg
same,ALP,"[3]; blood chemistry, individual mice 1-5, Fig.6h",192.3 U/L and 155.8 U/L and 154.8 U/L and 192.1 U/L and 150.9 U/L
same,ALT,"[3]; blood chemistry, individual mice 1-5, Fig.6i",40 U/L and 44.1 U/L and 53.2 U/L and 59.2 U/L and 46 U/L
same,AST,"[3]; blood chemistry, individual mice 1-5, Fig.6j",141.2 U/L and 161.4 U/L and 172.2 U/L and 182.6 U/L and 148.2 U/L
same,CRE,"[3]; blood chemistry, individual mice 1-5, Fig.6k",141.2 µmol/L and 161.4 µmol/L and 172.2 µmol/L and 182.6 µmol/L and 148.2 µmol/L
same,BUN,"[3]; blood chemistry, individual mice 1-5, Fig.6l",8.3 mmol/L and 8.7 mmol/L and 6.3 mmol/L
same,RBC,"[3]; blood routine, individual mice 1-5, Fig.6a",10.0 1012/L and 9.2 1012/L and 9.1 1012/L and 11.1 1012/L and 11.2 1012/L
same,MCHC,"[3]; blood routine, individual mice 1-5, Fig.6b",305 g/L and 300 g/L and 301 g/L and 299 g/L and 308 g/L
same,HCT,"[3]; blood routine, individual mice 1-5, Fig.6c",51.8% and 49.2% and 51% and 53.8% and 50.9%
same,MCV,"[3]; blood routine, individual mice 1-5, Fig.6d",48.4 fL and 48.1 fL and 48.2 fL and 48.5 fL and 49.1 fL
same,PLT,"[3]; blood routine, individual mice 1-5, Fig.6e",11.4 1011/L and 11.8 1011/L and 10.7 1011/L and 11.5 1011/L and 12.0 1011/L
same,RDW,"[3]; blood routine, individual mice 1-5, Fig.6f",14.3% and 14.9% and 13.6% and 13.3%
same,MPV,"[3]; blood routine, individual mice 1-5, Fig.6g",5.3 fL and 5.4 fL and 6 fL and 5.5 fL
same,"RBC, MCHC, HCT, MCV, PLT, RDW, MPV, ALP, ALT, AST, CRE, BUN levels versus PBS group",[3]; one-way ANOVA,no significance
same,"RBC, MCHC, HCT, MCV, PLT, RDW, MPV values",[3]; treated mice,small alteration
same,Ka,[4],(5.1 ± 0.5) × 10^6 M^−1
same,TUNEL apoptosis in tumors,PANC1 tumor tissues,negligible apoptosis
same,cell viability,"PANC1 cells; PANC1, Hypoxia, 10 μM",101.91 and 106.97 and 106.87 and 103.95 and 95.76 and 94.38
same,cell viability,"PANC1 cells; PANC1, Hypoxia, 20 μM",98.99 and 105.90 and 107.51 and 100.07 and 96.78 and 98.26
same,cell viability,"PANC1 cells; PANC1, Hypoxia, 40 μM",96.62 and 103.74 and 107.19 and 94.57 and 95.43 and 98.62
same,cell viability,"PANC1 cells; PANC1, Hypoxia, 100 μM",89.44 and 102.24 and 97.97 and 93.46 and 97.47 and 88.44
same,cell viability,"PANC1 cells; PANC1, Hypoxia, 200 μM",96.47 and 99.73 and 95.34 and 92.70 and 90.07 and 95.59
same,cell viability,"PANC1 cells; PANC1, Hypoxia, 400 μM",98.35 and 96.22 and 97.85 and 103.12 and 92.08 and 92.95
same,cell viability,"PANC1 cells; PANC1, Normoxia, 10 μM",94.32 and 96.61 and 94.68 and 98.32 and 94.21 and 96.48
same,cell viability,"PANC1 cells; PANC1, Normoxia, 20 μM",92.78 and 88.19 and 94.36 and 97.85 and 97.21 and 107.50
same,cell viability,"PANC1 cells; PANC1, Normoxia, 40 μM",88.98 and 89.46 and 94.68 and 94.21 and 93.73 and 87.87
same,cell viability,"PANC1 cells; PANC1, Normoxia, 100 μM",86.69 and 92.80 and 86.44 and 99.65 and 91.72 and 99.02
same,cell viability,"PANC1 cells; PANC1, Normoxia, 200 μM",96.38 and 94.98 and 93.23 and 105.44 and 89.58 and 94.49
same,cell viability,"PANC1 cells; PANC1, Normoxia, 400 μM",90.21 and 94.16 and 91.97 and 97.63 and 95.37 and 92.10
same,cytotoxicities,"PANC1 cells; PANC1 cells, 10 μM to 0.40 mM, normoxic and hypoxic",negligible

# Reference: publication PMC10500001, “Dual hypoxia-responsive supramolecular complex for cancer target therapy” (Nature Communications, 2023)
